# Source: patent US11667651B2, “Aminopyridine derivatives as phosphatidylinositol phosphate kinase inhibitors” (HiberCell, Inc., priority 2017, dated 2023)
# Tests used:
# Format in all cases: biochemical
# PIP4K2A [1] = biological target: T1, PIP4K2A (Homo sapiens, UniProt P48426); assay: Kinase Assay PIP4K2 A (Table 2); set-up: 4 nM PIP4K2A (full length protein, SignalChem); purchased SignalChem; conditions: compounds listed under IC50 bins
# T1 sequence (P48426 1-406): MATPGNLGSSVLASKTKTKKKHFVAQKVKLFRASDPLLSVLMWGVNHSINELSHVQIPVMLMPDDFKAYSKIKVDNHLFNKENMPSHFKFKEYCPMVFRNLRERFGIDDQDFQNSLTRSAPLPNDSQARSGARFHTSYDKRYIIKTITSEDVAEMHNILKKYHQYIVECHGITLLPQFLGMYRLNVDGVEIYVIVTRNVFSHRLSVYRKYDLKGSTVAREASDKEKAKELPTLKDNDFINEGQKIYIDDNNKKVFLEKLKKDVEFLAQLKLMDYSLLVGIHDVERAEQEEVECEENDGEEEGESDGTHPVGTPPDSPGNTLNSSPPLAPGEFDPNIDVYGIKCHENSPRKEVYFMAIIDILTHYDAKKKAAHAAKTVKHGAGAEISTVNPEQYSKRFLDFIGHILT
# How it was run: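 Full-length PIP4K2A (4 nM in the added mix, with 100 μM PI(5)P diC8) pre-incubated 15 min at RT with compounds (10-point, 3-fold series) in 20 mM MOPS pH 7.2, 25 mM MgCl2, 0.005% Tween 20. ATP added from a 60 μM solution, 1 h at RT; ADP-Glo luminescence, IC50 fitted from % inhibition versus DMSO.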
# PIP4K2A [2] = biological target: T1, PIP4K2A; assay: ADP-glo kinase assay PIP4K 2A (Table 3); set-up: made in house; host or cells: E. coli; conditions: compounds listed under IC50 bins
# How it was run: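 Full-length PIP4K2A (4 nM in the mix) with 100 μM PI(5)P diC8 pre-incubated 15 min with compound in MOPS pH 7.2, 25 mM MgCl2; ATP added (60 μM solution), 1 h at RT. ADP formed read by ADP-Glo luminescence; 10-point curves versus DMSO controls fitted to IC50.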
# PIP4K2B = biological target: T2, PIP4K2B (Homo sapiens, UniProt P78356); assay: Trans-FI P kinase assay PIP4K2B (Table 4); conditions: compounds listed under IC50 bins; read-out: Trans-FI P kinase assays: PIP4K2B IC50
# T2 construct: made in house; host or cells: E. coli
# T2 sequence (P78356 1-416): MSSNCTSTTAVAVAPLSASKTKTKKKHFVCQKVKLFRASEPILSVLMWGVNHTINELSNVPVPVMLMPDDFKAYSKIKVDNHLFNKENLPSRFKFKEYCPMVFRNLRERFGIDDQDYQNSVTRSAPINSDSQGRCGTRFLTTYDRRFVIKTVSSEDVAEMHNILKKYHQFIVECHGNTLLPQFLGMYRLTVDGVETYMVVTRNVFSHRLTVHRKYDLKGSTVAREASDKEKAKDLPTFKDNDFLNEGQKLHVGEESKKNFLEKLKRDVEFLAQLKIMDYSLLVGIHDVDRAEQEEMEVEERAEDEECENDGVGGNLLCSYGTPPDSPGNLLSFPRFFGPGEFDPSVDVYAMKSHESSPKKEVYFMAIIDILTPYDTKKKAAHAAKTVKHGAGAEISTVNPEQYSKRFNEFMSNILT
# How it was run: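 Transcreener FI detection (Ex 584/Em 623) of GDP, converted via calibration curve, gives IC50 from residual activity versus log concentration (highest 4.8 μM). Reaction: 80 μM PI5P plus DOPE carrier, 100 μM GTP, 5 nM GST-tagged enzyme, pH 7.3 HEPES with MgCl2 and 5% DMSO, 2 h after 1 h enzyme-compound preincubation at 27° C.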
IC50 (PIP4K2A [1]) [µM],IC50 (PIP4K2A [2]) [µM],IC50 (PIP4K2B) [µM],SMILES
0.001 to 0.01,0.001 to 0.01,0.001 to 0.01,"O=C1CCCN1c1ccc(-c2cnc(Nc3cnc4c(c3)N3C(=O)CC[C@H]3CO4)cc2C2CC2)cc1 [Example 178, (S)-2-((4-cyclopropyl-5-(4-(2-oxopyrrolidin-1-yl)phenyl)pyridin-2-yl)amino)-6,6a,7,8-tetrahydro-9H-pyrido[2,3-b]pyrrolo[1,2-d][1,4]oxazin-9-one]"
≤ 0.001,0.001 to 0.01,0.001 to 0.01,"COc1cc(Nc2cnc3c(c2)N2C(=O)CC[C@H]2CO3)ncc1-c1ccc(N2CCCC2=O)cc1 [Example 179, (S)-2-((4-methoxy-5-(4-(2-oxopyrrolidin-1-yl)phenyl)pyridin-2-yl)amino)-6,6a,7,8-tetrahydro-9H-pyrido[2,3-b]pyrrolo[1,2-d][1,4]oxazin-9-one]"
≤ 0.001,0.001 to 0.01,0.01 to 0.1,"COc1cc(Nc2cnc3c(c2)N2C(=O)CC[C@H]2CO3)ncc1-c1ccc(N2CCCC2=O)c(F)c1 [Example 183, (S)-2-((5-(3-fluoro-4-(2-oxopyrrolidin-1-yl)phenyl)-4-methoxypyridin-2-yl)amino)-6,6a,7,8-tetrahydro-9H-pyrido[2,3-b]pyrrolo[1,2-d][1,4]oxazin-9-one]"
0.001 to 0.01,0.01 to 0.1,0.01 to 0.1,"Cc1nc(Nc2cnc3c(c2)N2C(=O)CC[C@H]2CO3)ccc1-c1ccc(N2CCCC2=O)cc1 [Example 190, (S)-2-((6-methyl-5-(4-(2-oxopyrrolidin-1-yl)phenyl)pyridin-2-yl)amino)-6,6a,7,8-tetrahydro-9H-pyrido[2,3-b]pyrrolo[1,2-d][1,4]oxazin-9-one]"
0.001 to 0.01,0.01 to 0.1,0.01 to 0.1,"O=C1CCCN1c1ccc(-c2ccc(Nc3cnc4c(c3)N3C(=O)CC[C@H]3CO4)nc2)c(F)c1 [Example 191, (S)-2-((5-(2-fluoro-4-(2-oxopyrrolidin-1-yl)phenyl)pyridin-2-yl)amino)-6,6a,7,8-tetrahydro-9H-pyrido[2,3-b]pyrrolo[1,2-d][1,4]oxazin-9-one]"
0.01 to 0.1,0.01 to 0.1,0.01 to 0.1,"Cc1cc(N2CCCC2=O)ccc1-c1ccc(Nc2cnc3c(c2)N2C(=O)CC[C@H]2CO3)nc1 [Example 192, (S)-2-((5-(2-methyl-4-(2-oxopyrrolidin-1-yl)phenyl)pyridin-2-yl)amino)-6,6a,7,8-tetrahydro-9H-pyrido[2,3-b]pyrrolo[1,2-d][1,4]oxazin-9-one]"
0.001 to 0.01,0.001 to 0.01,0.001 to 0.01,"COCc1nc(Nc2cnc3c(c2)N2C(=O)CC[C@H]2CO3)ncc1-c1ccc(N2CCCC2=O)cc1 [Example 197, (S)-2-((4-(methoxymethyl)-5-(4-(2-oxopyrrolidin-1-yl)phenyl)pyrimidin-2-yl)amino)-6,6a,7,8-tetrahydro-9H-pyrido[2,3-b]pyrrolo[1,2-d][1,4]oxazin-9-one]"
≤ 0.001,0.001 to 0.01,0.01 to 0.1,"CN(C)C(=O)c1ccc(-c2ccc(Nc3cncc(N4CCN(Cc5ccc(N)cc5)C4=O)c3)nc2)cc1 [Example 222, 4-(6-((5-(3-(4-aminobenzyl)-2-oxoimidazolidin-1-yl)pyridin-3-yl)amino)pyridin-3-yl)-N,N-dimethylbenzamide]"
≤ 0.001,0.001 to 0.01,0.01 to 0.1,"CN(C)C(=O)c1ccc(-c2ccc(Nc3cncc(N4CCN(Cc5cccc(N)c5)C4=O)c3)nc2)cc1 [Example 223, 4-(6-((5-(3-(3-aminobenzyl)-2-oxoimidazolidin-1-yl)pyridin-3-yl)amino)pyridin-3-yl)-N,N-dimethylbenzamide]"
0.001 to 0.01,0.001 to 0.01,0.01 to 0.1,"CN(C)C(=O)c1ccc(-c2ccc(Nc3cncc(N4CCN(Cc5cccc(NC(=O)CCc6cccc(N)c6)c5)C4=O)c3)nc2)cc1 [Example 224, 4-(6-((5-(3-(3-(3-(3-aminophenyl)propanamido)benzyl)-2-oxoimidazolidin-1-yl)pyridin-3-yl)amino)pyridin-3-yl)-N,N-dimethylbenzamide]"
0.001 to 0.01,0.01 to 0.1,0.01 to 0.1,"CN(C)C/C=C/C(=O)Nc1cccc(CCC(=O)Nc2cccc(CN3CCN(c4cncc(Nc5ccc(-c6ccc(C(=O)N(C)C)cc6)cn5)c4)C3=O)c2)c1 [Example 225, (E)-4-(6-((5-(3-(3-(3-(3-(4-(dimethylamino)but-2-enamido)phenyl)propanamido)benzyl)-2-oxoimidazolidin-1-yl)pyridin-3-yl)amino)pyridin-3-yl)-N,N-dimethylbenzamide]"
≤ 0.001,0.001 to 0.01,0.01 to 0.1,"CN(C)C/C=C/C(=O)NCC(=O)Nc1cccc(CN2CCN(c3cncc(Nc4ccc(-c5ccc(C(=O)N(C)C)cc5)cn4)c3)C2=O)c1 [Example 227, (E)-4-(6-((5-(3-(3-(2-(4-(dimethylamino)but-2-enamido)acetamido)benzyl)-2-oxoimidazolidin-1-yl)pyridin-3-yl)amino)pyridin-3-yl)-N,N-dimethylbenzamide]"
> 1,> 1,> 1,"CN(C)C(=O)c1ccc(-c2ccc(Nc3cncc(N4CCN(Cc5ccc(NC(=O)CN)cc5)C4=O)c3)nc2)cc1 [Example 228, 4-(6-((5-(3-(4-(2-aminoacetamido)benzyl)-2-oxoimidazolidin-1-yl)pyridin-3-yl)amino)pyridin-3-yl)-N,N-dimethylbenzamide]"
> 1,> 1,> 1,"CN(C)C/C=C/C(=O)NCC(=O)Nc1ccc(CN2CCN(c3cncc(Nc4ccc(-c5ccc(C(=O)N(C)C)cc5)cn4)c3)C2=O)cc1 [Example 229, (E)-4-(6-((5-(3-(4-(2-(4-(dimethylamino)but-2-enamido)acetamido)benzyl)-2-oxoimidazolidin-1-yl)pyridin-3-yl)amino)pyridin-3-yl)-N,N-dimethylbenzamide]"
0.001 to 0.01,0.001 to 0.01,0.01 to 0.1,"CN(C)C(=O)c1ccc(-c2ccc(Nc3cncc(N4CCN(Cc5ccc(NC(=O)CCc6cccc(N)c6)cc5)C4=O)c3)nc2)cc1 [Example 230, 4-(6-((5-(3-(4-(3-(3-aminophenyl)propanamido)benzyl)-2-oxoimidazolidin-1-yl)pyridin-3-yl)amino)pyridin-3-yl)-N,N-dimethylbenzamide]"
0.001 to 0.01,0.001 to 0.01,0.01 to 0.1,"CN(C)C/C=C/C(=O)Nc1cccc(CCC(=O)Nc2ccc(CN3CCN(c4cncc(Nc5ccc(-c6ccc(C(=O)N(C)C)cc6)cn5)c4)C3=O)cc2)c1 [Example 231, (E)-4-(6-((5-(3-(4-(3-(3-(4-(dimethylamino)-but-2-enamido)phenyl)propanamido)benzyl)-2-oxoimidazolidin-1-yl)pyridin-3-yl)amino)pyridin-3-yl)-N,N-dimethylbenzamide]"
0.001 to 0.01,0.01 to 0.1,0.01 to 0.1,"CN(C)C(=O)c1ccc(-c2ccc(Nc3cncc(NC(=O)c4cccc5[nH]cnc45)c3)nc2)cc1 [Example 232, N-(5-((5-(4-(dimethylcarbamoyl)phenyl)pyridin-2-yl)amino)pyridin-3-yl)-1H-benzo[d]imidazole-7-carboxamide]"
0.001 to 0.01,0.001 to 0.01,0.01 to 0.1,"O=C1CCCN1c1ccc(-c2ccc(Nc3cnc4c(c3)N(C(=O)C3(O)CC3)CCO4)nc2)cc1 [Example 233, 1-(4-(6-((1-(1-hydroxycyclopropane-1-carbonyl)-2,3-dihydro-1H-pyrido[2,3-b][1,4]oxazin-7-yl)amino)pyridin-3-yl)phenyl)pyrrolidin-2-one]"
0.001 to 0.01,0.001 to 0.01,0.01 to 0.1,"CC(O)C(=O)N1CCOc2ncc(Nc3ccc(-c4ccc(N5CCCC5=O)cc4)cn3)cc21 (stereo not drawn) [Example 234, 1-(4-(6-((1-(2-hydroxypropanoyl)-2,3-dihydro-1H-pyrido[2,3-b][1,4]oxazin-7-yl)amino)pyridin-3-yl)phenyl)pyrrolidin-2-one]"
